Activity calls are given as the source filed them. For most assays here, no stated cut-off is given here; in the data, actives have a measured EC50 and inactives only a lower limit.
What was measured:
[1] = molecular target: T1, Apoptotic protease-activating factor 1 (Homo sapiens, UniProt O14727); test: SAR analysis of small molecule Activators of Apaf-1 in a Fluorescent assay.; format: functional; settings: read-out: EC50_Mean
T1 sequence (O14727 whole entry): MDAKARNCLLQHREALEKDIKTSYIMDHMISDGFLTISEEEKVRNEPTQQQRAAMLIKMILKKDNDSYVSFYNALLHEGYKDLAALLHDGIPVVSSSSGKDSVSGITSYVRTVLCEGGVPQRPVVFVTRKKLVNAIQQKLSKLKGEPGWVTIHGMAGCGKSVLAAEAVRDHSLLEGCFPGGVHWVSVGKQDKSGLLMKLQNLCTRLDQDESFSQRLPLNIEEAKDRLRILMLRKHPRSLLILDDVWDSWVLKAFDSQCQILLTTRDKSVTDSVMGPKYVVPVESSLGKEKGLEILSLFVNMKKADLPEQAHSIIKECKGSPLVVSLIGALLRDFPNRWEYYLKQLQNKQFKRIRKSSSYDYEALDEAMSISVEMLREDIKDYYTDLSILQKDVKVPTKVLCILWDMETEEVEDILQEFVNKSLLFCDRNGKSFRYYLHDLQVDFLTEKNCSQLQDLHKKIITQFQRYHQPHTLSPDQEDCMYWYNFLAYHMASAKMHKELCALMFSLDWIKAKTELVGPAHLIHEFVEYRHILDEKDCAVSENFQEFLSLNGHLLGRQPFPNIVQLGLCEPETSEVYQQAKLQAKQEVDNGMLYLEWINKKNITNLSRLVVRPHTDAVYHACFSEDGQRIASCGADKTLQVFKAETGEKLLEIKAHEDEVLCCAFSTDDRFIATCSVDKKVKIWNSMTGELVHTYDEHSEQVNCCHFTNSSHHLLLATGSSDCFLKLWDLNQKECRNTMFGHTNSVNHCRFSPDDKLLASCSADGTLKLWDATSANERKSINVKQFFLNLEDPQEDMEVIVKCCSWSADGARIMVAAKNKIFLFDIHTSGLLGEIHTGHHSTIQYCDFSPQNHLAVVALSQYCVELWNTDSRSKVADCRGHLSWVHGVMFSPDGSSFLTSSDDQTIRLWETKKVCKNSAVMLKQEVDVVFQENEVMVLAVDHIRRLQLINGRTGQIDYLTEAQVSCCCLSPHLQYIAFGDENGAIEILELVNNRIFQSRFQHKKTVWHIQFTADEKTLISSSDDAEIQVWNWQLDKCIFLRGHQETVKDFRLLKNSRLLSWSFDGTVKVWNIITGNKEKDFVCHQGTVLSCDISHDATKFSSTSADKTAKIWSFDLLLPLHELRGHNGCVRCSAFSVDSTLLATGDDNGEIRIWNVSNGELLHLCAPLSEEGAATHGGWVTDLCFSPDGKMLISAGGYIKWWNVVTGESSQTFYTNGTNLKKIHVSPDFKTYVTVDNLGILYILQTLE

[2] = SAR analysis of small molecule activators of Apaf-1 using a LZ-Caspase-9/Caspase-3 Fluorescent Selectivity assay - Set 2.; format: functional; settings: read-out: EC50_Mean
[3] = molecular target: T1, Apoptotic protease-activating factor 1; test: SAR analysis of small molecule Activators of Apaf-1 in a Fluorescent assay - set 2.; format: functional; settings: read-out: EC50_Mean
[4] = molecular target: Serine/threonine-protein kinase pim-1 (Homo sapiens, UniProt P11309); format: functional
[5] = molecular target: T2, Heat shock factor protein 1 (Mus musculus, UniProt P38532); test: decrease of HSF1-responsive luciferase luminescence – cell-based, NIH3T3, dose retest, confirmation (AID 2382); format: functional;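 further: NIH3T3 fibroblasts with HSF1-driven luciferase reporter stressed by proteasome inhibitor MG132; luminescence from HSF1-driven luciferase expression after 8 hours of MG132 stress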
T2 sequence (P38532 whole entry): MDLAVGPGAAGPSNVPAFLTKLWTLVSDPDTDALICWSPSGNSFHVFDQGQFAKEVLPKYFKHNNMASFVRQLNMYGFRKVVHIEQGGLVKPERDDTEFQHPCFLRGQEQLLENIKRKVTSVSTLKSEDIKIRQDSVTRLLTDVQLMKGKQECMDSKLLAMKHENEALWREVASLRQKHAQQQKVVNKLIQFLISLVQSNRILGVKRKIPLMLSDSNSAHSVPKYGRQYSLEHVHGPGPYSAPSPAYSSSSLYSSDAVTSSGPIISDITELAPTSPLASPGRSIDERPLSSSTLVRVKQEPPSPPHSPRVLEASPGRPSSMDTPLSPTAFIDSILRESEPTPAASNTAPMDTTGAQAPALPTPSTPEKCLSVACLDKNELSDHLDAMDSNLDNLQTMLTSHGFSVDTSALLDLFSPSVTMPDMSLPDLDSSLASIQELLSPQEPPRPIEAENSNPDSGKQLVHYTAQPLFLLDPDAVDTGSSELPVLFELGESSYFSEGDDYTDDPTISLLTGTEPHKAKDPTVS

[6] = molecular target: Multidrug resistance protein CDR1 (Candida albicans, UniProt P43071); test: inhibition of Nile Red efflux via Candida CDR1 – S. cerevisiae AD1-8u, singleplex, Cherry Pick1 hits, dose response (AID 588606); format: functional
[7] = molecular target: T3, DNA dC->dU-editing enzyme APOBEC-3G (Homo sapiens, UniProt Q9HC16); test: inhibition of APOBEC3G ssDNA deamination – biochemical, fluorescence, single-stranded DNA substrate, SAR follow-up (AID 602136); format: functional; settings: read-out: IC50_Mean
[8] = molecular target: T4, DNA dC->dU-editing enzyme APOBEC-3A (Homo sapiens, UniProt P31941); test: SAR analysis of small molecule inhibitors of APOBEC3A DNA Deaminase via a fluorescence-based single-stranded DNA deaminase assay.; format: functional; settings: read-out: IC50_Mean
[9] = molecular target: T3, DNA dC->dU-editing enzyme APOBEC-3G; test: SAR analysis of small molecule inhibitors of APOBEC3G DNA Deaminase via a fluorescence-based single-stranded DNA deaminase assay - Set 2.; format: functional; settings: read-out: IC50_Mean
[10] = molecular target: T4, DNA dC->dU-editing enzyme APOBEC-3A; test: SAR analysis of small molecule inhibitors of APOBEC3A DNA Deaminase via a fluorescence-based single-stranded DNA deaminase assay - Set 2.; format: functional; settings: read-out: IC50_Mean
[11] = system: Streptococcus; test: GAS UMAA2166 growth inhibition – luminescence, BacTiterGlo, counter-screen for streptokinase expression inhibitor project, dose response (AID 1915); format: functional, organism-based;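 further: potency for reduction of bacterial viability or growth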
[12] = HEK-293T cell viability reduction – luminescence, B-cell screen hits, cytotoxicity control for BCR NF-kB inhibitor project, dose response (AID 489021); format: functional, cell-based;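 further: HEK-293T cells carrying an NF-kB luciferase reporter; cells exposed to compound for about 14 hours before viability readout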
[13] = molecular target: T5, Streptokinase A (Streptococcus pyogenes serotype M1, UniProt P10520); test: viability-normalized secreted streptokinase activity reduction – plasminogen activation absorbance, OD405, dose response (AID 1914); format: functional, Streptococcus pyogenes M1 GAS;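 further: secreted streptokinase activity via plasminogen activation per viability signal from cell pellet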
T5 sequence (P10520 whole entry): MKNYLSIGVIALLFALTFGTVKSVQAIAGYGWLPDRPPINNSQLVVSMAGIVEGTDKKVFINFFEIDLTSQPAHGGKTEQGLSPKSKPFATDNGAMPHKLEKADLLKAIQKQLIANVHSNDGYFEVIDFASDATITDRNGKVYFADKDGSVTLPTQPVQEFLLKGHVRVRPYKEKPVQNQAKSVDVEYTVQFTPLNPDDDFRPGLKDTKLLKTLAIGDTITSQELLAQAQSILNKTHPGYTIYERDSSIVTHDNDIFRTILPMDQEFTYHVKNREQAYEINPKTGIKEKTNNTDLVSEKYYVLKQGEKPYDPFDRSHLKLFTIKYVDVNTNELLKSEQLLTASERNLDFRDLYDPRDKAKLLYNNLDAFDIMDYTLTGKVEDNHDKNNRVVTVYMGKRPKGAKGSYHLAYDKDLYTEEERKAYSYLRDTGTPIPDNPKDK

[14] = system: INS1; test: INS-1E survival protection against cytokine death – cell-based, luminescence, retest, dose response (AID 449756); format: functional; settings: Rattus norvegicus;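 further: cell death triggered by IL-1 beta plus TNF-alpha plus IFN-gamma mixture; protective hits raise ATP signal compared with cytokine alone wells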
[15] = system: BJ; test: BJ-TERT-LT-ST fibroblast viability loss – cell-based, RAS-independent, luminescence, dose response (AID 1935); format: functional; settings: Homo sapiens;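 further: BJ fibroblasts immortalized with TERT plus LT and ST oncogenes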
[16] = system: BJ; test: cells; format: functional, cell-based; settings: Homo sapiens
[17] = molecular target: T6, Replicative DNA helicase DnaB (Mycobacterium tuberculosis, UniProt P9WMR3); test: DnaB intein splicing inhibitors, dose response, biochemical, cell-free fluorescence (AID 449749); format: functional
T6 sequence (P9WMR3 whole entry): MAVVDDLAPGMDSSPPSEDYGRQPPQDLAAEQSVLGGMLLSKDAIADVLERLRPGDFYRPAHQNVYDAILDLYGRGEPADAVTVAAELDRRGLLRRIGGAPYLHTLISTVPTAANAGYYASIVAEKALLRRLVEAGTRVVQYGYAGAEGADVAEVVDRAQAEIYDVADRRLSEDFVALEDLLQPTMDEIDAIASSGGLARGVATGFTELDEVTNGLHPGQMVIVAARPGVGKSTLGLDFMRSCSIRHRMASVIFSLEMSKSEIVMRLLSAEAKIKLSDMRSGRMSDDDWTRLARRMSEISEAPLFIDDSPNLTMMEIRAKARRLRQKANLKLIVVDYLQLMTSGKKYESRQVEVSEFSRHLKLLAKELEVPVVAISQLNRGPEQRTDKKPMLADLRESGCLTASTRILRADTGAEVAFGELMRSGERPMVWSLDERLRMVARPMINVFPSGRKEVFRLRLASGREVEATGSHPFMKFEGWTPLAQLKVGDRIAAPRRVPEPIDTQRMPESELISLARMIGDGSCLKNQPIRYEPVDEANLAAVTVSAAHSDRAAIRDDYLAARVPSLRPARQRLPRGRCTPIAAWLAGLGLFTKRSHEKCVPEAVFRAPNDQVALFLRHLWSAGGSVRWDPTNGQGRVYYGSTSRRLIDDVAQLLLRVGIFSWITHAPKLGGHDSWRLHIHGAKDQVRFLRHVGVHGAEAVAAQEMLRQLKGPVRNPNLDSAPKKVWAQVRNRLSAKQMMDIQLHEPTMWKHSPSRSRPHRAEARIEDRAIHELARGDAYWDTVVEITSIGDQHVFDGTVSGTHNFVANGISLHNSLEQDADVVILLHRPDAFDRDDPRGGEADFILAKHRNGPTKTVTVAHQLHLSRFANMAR

[18] = system: Streptococcus sp. 'group A'; test: Streptococcus pyogenes SK(-)GAS viability under kanamycin – luminescence, BacTiterGlo, confirmation, counter-screen for streptokinase expression inhibitor project, dose response (AID 1900); format: functional, organism-based
[19] = molecular target: T7, Protein RecA (Mycobacterium tuberculosis, UniProt P9WHJ3); test: Fluorescence Cell-Free Homogeneous Dose Retest to Identify Inhibitors of RecA-Intein Splicing Activity. [Related pubchem assays (depositor defined):AID2097, AID2223, AID489010, AID492950]; format: functional
T7 sequence (P9WHJ3 whole entry): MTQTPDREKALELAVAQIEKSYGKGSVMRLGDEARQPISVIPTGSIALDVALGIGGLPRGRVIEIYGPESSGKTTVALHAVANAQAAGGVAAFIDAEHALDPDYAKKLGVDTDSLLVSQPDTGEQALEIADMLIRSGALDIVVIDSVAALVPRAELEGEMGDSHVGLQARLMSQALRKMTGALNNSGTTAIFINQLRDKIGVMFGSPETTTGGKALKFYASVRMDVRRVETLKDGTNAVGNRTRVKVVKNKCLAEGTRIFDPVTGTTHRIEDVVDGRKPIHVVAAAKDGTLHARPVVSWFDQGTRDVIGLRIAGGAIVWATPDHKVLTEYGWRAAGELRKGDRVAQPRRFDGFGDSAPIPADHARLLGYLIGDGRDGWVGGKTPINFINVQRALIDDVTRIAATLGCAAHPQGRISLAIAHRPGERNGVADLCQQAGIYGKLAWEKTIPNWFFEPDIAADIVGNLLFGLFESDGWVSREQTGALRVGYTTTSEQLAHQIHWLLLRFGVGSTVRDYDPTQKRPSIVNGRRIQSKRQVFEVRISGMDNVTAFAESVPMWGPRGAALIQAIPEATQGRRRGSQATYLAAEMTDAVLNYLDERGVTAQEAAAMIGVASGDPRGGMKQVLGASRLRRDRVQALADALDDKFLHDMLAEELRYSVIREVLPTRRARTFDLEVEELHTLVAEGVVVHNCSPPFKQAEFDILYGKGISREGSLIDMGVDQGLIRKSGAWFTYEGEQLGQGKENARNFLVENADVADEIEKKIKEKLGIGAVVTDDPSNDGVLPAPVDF

[20] = system: BJ; test: BJ-TERT fibroblast viability loss – cell-based, RAS-independent, luminescence, dose response (AID 1933); format: functional; settings: Homo sapiens
[21] = DRD fibroblast viability loss – cell-based, non-viral oncogenic, luminescence, dose response (AID 1934); format: functional; settings: Homo sapiens
[22] = system: BJ; test: growth inhibition of engineered Ras-driven BJ cells – cell-based, alamar blue fluorescence, cherrypicked samples, dose response (AID 2631); format: functional; settings: Homo sapiens;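 further: confirmatory dose-response assay in RAS-dependent BJ fibroblasts engineered with TERT, LT and ST, with cytotoxicity read by fluorescence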

Chain of Multidrug resistance protein CDR1 (P43071 whole entry, looked up): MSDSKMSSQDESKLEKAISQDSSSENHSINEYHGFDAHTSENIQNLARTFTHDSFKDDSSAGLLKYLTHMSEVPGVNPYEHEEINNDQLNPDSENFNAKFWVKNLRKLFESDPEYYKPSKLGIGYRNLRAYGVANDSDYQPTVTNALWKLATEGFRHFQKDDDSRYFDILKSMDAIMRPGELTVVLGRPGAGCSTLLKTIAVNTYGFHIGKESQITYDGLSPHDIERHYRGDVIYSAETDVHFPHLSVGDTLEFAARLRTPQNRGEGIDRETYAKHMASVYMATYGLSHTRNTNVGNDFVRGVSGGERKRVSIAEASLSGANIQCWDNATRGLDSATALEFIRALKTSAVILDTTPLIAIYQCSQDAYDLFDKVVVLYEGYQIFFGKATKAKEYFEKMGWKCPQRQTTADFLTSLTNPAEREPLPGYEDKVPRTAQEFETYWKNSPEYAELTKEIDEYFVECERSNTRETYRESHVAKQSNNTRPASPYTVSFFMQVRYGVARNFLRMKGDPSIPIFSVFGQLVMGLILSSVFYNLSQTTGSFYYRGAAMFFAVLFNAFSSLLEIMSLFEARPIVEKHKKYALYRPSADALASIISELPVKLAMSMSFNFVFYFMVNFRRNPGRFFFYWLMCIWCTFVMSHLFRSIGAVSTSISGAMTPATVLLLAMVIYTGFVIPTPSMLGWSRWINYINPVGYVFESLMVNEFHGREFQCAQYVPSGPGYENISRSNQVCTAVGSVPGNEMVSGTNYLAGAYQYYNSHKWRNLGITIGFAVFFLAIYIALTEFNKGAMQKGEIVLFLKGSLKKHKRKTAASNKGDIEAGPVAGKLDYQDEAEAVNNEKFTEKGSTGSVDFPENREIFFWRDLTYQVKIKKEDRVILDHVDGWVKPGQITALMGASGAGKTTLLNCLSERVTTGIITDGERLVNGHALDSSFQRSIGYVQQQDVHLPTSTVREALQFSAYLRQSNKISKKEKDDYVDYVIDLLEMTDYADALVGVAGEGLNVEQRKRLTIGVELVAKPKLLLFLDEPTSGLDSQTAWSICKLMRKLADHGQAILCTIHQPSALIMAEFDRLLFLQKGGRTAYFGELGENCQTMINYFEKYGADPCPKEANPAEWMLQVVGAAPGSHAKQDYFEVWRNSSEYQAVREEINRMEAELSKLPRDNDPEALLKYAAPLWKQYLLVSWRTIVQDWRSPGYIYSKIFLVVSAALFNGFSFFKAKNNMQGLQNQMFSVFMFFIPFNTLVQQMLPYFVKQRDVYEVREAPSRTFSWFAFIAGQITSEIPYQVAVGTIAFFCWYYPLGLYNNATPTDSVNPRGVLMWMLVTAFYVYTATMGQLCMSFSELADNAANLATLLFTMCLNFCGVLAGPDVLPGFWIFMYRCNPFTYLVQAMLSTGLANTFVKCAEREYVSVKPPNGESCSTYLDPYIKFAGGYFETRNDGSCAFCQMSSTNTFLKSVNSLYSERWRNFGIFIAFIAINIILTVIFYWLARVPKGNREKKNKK
T3 sequence (Q9HC16 whole entry): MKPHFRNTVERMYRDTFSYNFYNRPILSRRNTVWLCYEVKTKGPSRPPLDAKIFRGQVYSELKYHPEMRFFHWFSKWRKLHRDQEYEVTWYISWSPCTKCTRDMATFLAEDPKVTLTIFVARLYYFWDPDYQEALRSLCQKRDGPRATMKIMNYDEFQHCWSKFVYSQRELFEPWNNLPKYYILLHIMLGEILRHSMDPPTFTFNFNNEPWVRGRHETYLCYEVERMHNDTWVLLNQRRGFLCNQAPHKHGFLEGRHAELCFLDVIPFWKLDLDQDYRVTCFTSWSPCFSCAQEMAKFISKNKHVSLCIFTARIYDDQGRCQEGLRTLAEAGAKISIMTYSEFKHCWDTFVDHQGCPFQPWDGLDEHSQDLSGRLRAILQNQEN
T4 sequence (P31941 whole entry): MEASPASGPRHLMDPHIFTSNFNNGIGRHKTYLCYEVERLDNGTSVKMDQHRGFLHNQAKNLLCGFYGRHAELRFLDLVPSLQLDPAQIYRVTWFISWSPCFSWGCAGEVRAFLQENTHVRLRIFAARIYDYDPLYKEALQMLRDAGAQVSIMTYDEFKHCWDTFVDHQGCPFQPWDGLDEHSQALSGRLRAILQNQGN
Chain of Serine/threonine-protein kinase pim-1 (P11309 whole entry): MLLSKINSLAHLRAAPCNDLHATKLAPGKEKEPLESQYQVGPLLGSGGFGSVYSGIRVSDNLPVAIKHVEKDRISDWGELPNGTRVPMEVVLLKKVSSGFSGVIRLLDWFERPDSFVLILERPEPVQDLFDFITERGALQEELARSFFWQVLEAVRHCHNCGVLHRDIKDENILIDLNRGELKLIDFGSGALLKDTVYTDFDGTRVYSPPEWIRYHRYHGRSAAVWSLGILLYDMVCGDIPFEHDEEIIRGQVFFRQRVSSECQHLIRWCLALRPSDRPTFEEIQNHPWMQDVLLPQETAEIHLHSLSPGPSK

## COc1ccc(C)cc1NC(=O)CCS(=O)(=O)c1ccc2c(c1)CC(C)N2C(=O)C1CC1 (stereo not given)
[1]
  EC50: > 100 µM (inactive)

## CC(CN1CCCCC1)C(=O)O (stereo not given)
[2]
  EC50: > 100 µM (inactive)
[3]
  EC50: > 100 µM (inactive)

## Cc1ccc2c(Nc3cc(OCc4ccccc4Br)ccc3Sc3ccc(O)cc3)ncnc2n1
[4]
  Ki: 5.01 µM (active)

## O=C1C(Cc2ccccc2)Nc2ncnc(N3CCN(c4ccccc4)CC3)c2N1Cc1ccccc1 (stereo not given)
[5]
  EC50: > 195 µM (not active)
[6]
  EC50: 14.7 µM (active)

## Cc1cc(Cl)cc2c1N[C@H](c1ccncc1)C1CC=CC21 (stereo not given in full)
[7]
  IC50: > 99 µM (inactive)
[8]
  IC50: > 99 µM (inactive)

## O=C(NC(=S)Nc1ccc2[nH]c(=O)[nH]c2c1)c1cncc(Br)c1
[6]
  EC50: 2.09 µM (active)

## Cc1ccc(-c2csc3nnc(SCC(N)=O)n23)cc1
[9]
  IC50: > 99 µM (inactive)
[10]
  IC50: > 99 µM (inactive)

## CC1CCc2c(sc3nc(C(C)(C)C)nc(N4CCN(C(=O)CCl)CC4)c23)C1 (stereo not given)
[11]
  EC50: 14.1 µM (active)
[12]
  IC50: > 80 µM (inactive)
[13]
  EC50: 1.79 µM (active)
[14]
  AC50: 5.84 µM (active)
[15]
  EC50: 4.69 µM (inconclusive)
[16]
  EC50: 5.41 µM (inconclusive)
[17]
  AC50: 2.45 µM (active)
[18]
  EC50: 2.96 µM (active)
[19]
  EC50: 0.481 µM (active)
[20]
  EC50: 2.02 µM (active)
[21]
  EC50: 5.42 µM (inconclusive)
[22]
  EC50: 0.588 µM (active)

## O=C(O)C1CC(c2cccc(Br)c2)=NO1 (stereo not given)
[2]
  EC50: > 100 µM (inactive)
[3]
  EC50: > 100 µM (inactive)

Reference: ChEMBL document CHEMBL1201862, “PubChem BioAssay data set” (2004)
